Measurements taken from patent publication US9670193B2 (Novartis AG, priority 2011, dated 2017).

Experiments:
Assay type in all cases: biochemical
Details in all cases: 5 μM substrate, 2 hours at room temperature
[1] = molecular target: Human recombinant full length HDAC6 (Homo sapiens (Human), UniProt Q9UBN7); experiment: HDAC6 assay (Test 3), acetyl-Gly-Ala-Lys(acetyl)-AMC substrate
Procedure: (§1) Human recombinant HDAC4 was expressed in full length form (aa 2-1084) in Sf9 insect cells (obtained from ATCC) using baculovirus generated with Bac-to-Bac system (Invitrogen). Test compounds were serially diluted to reach final test concentrations from 0.000128 μM to 10 μM. HDAC4 and test compounds were incubated in 25 mM Tris buffer pH 8.0 containing 137 mM NaCl, 2.7 mM KCl, 1 mM MgCl2, 0.05% (w/v) bovine serum albumine and 0.005% (v/v) Triton-X-100 for 2 hours at room temperature in presence of 5 μM of acetyl-Gly-Ala-Lys(ε-trifluoroacetyl)-AMC (AMC=7-amino-4-methyl coumarin) in a final volume of 9 μl. Control wells with HDAC4 only (positive control) and without HDAC4 (negative control) were included on the microplate. Bovine trypsin (4.5 μl of a 300 nM solution) was added and the plate incubated for additional 15 minutes at room temperature. The plate was placed in a fluorescence microplate reader, and read at an excitation wavelength of 360 nm and an emission wavelength of 450 nm with a 10 nm bandpath. Fluorescence values for all wells containing HDAC4 (positive control and wells with test compound) were corrected by subtracting negative control fluorescence values, and IC50 values were calculated by fitting the dose-response curves to a 4-parameter logistic function.
Test 3: HDAC6 Assay Description
A similar assay procedure as described in Test 1 was used for HDAC6. Human recombinant full length HDAC6 expressed in a baculovirus expression system was purchased from BPS BioSciences (San Diego, Calif., U.S.A.). The substrate used in the […] assay was 5 μM of acetyl-Gly-Ala-Lys (acetyl)-AMC.

Human recombinant HDAC4 = Human recombinant HDAC4 (Homo sapiens (Human), UniProt P56524); experiment: HDAC4 assay (Test 1), fluorescence, acetyl-Gly-Ala-Lys(ε-trifluoroacetyl)-AMC substrate
Sequence of Human recombinant HDAC4 (P56524 2-1084): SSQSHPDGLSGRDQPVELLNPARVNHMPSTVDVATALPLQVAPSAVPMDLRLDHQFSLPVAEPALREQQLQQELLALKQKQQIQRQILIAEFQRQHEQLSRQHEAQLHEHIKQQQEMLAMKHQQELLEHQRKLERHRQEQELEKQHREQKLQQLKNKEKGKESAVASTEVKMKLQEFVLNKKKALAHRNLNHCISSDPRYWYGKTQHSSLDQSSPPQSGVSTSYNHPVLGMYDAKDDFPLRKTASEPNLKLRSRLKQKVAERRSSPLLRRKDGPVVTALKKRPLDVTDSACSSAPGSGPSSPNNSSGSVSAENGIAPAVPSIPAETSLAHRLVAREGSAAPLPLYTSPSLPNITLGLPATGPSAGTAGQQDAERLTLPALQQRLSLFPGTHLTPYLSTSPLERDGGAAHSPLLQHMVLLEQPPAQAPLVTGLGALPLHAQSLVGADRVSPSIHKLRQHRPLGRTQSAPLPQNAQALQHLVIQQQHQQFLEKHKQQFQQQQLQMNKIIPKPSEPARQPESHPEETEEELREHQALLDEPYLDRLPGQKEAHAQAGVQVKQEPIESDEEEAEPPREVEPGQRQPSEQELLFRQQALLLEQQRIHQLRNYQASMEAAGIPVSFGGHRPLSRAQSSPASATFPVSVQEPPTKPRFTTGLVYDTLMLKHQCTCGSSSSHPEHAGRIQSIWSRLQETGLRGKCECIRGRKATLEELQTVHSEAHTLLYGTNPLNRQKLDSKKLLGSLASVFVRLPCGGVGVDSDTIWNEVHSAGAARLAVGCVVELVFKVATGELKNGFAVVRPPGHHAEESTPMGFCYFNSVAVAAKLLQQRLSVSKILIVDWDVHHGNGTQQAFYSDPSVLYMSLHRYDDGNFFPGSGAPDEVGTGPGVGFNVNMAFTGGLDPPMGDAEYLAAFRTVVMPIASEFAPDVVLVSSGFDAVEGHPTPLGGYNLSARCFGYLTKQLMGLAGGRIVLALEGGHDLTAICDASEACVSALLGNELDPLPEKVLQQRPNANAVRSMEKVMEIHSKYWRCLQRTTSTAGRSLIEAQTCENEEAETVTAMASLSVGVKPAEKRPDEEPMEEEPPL
Procedure: Test 1: HDAC4 Assay Description
as §1

[2] = molecular target: Human recombinant full length HDAC1 (Homo sapiens (Human), UniProt Q13547); experiment: HDAC1 assay (Test 2), acetyl-Gly-Ala-Lys(acetyl)-AMC substrate
Sequence of Human recombinant full length HDAC1 (Q13547 whole entry): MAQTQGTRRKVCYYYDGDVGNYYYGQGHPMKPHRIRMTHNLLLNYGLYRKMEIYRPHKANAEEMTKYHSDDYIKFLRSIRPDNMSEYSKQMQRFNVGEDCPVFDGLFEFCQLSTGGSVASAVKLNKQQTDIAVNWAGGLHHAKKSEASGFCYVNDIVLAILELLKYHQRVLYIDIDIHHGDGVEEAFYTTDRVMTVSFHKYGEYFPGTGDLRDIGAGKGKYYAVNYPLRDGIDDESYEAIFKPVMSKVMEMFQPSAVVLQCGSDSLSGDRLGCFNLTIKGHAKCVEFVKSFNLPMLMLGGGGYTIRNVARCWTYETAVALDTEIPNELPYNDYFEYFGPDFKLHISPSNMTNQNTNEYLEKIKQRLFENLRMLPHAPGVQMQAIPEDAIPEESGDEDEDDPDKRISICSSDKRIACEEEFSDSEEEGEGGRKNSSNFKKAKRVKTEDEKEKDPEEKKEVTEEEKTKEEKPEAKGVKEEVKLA
Procedure: as §1
Test 2: HDAC1 Assay Description
A similar assay procedure as described in Test 1 was used for HDAC1. Human recombinant full length HDAC1 expressed in a baculovirus expression system was purchased from BPS BioSciences (San Diego, Calif., U.S.A.). The substrate used in the […] assay was 5 μM of acetyl-Gly-Ala-Lys(acetyl)-AMC.

Sequence of Human recombinant full length HDAC6 (Q9UBN7 whole entry, the tested form may be a part): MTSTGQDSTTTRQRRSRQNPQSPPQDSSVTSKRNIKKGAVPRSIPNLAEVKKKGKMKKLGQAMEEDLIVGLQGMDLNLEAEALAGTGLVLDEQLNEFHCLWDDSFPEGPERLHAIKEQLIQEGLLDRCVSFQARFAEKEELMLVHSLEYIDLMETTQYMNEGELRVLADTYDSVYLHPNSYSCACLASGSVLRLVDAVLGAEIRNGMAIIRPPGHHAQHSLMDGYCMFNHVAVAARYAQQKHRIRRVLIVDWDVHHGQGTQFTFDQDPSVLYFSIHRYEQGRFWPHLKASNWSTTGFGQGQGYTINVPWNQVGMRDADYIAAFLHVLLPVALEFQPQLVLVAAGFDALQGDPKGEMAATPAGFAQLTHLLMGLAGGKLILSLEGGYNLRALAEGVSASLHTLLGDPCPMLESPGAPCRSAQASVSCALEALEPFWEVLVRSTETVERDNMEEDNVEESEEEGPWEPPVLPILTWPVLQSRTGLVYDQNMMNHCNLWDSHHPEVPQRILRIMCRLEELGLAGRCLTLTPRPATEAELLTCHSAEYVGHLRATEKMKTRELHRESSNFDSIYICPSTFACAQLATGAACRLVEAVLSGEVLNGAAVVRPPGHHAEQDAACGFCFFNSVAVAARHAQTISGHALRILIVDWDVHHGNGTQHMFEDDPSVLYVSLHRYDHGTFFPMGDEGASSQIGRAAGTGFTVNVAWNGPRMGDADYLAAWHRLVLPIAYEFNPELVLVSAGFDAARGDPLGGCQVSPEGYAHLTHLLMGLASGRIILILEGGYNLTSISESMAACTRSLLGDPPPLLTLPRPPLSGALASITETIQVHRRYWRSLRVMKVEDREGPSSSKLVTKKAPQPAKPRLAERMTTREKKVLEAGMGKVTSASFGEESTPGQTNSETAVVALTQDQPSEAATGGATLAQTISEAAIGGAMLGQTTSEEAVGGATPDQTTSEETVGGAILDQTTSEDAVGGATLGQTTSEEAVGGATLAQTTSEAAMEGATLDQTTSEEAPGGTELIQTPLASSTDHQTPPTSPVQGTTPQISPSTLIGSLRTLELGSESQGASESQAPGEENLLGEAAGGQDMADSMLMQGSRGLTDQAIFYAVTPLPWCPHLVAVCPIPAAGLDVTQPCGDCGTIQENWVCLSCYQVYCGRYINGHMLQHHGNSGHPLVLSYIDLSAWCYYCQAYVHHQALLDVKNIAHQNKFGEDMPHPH

CC(=O)Nc1cnc(-c2noc(C(F)(F)F)n2)cn1 [Example 1, N-(5-(5-(trifluoromethyl)-1,2,4-oxadiazol-3-yl)pyrazin-2-yl)acetamide]
IC50 [1]: 1700 nM | IC50 (Human recombinant HDAC4): 460 nM | IC50 [2]: > 10000 nM

N#Cc1ccc(C(=O)Nc2cnc(-c3noc(C(F)(F)F)n3)cn2)cc1 [Example 2, 4-Cyano-N-(5-(5-(trifluoromethyl)-1,2,4-oxadiazol-3-yl)pyrazin-2-yl)benzamide]
IC50 [1]: 2600 nM | IC50 (Human recombinant HDAC4): 1400 nM | IC50 [2]: > 10000 nM

CN(Cc1ccncc1)c1ncc(-c2noc(C(F)(F)F)n2)cn1 [Example 3, N-methyl-N-(pyridin-4-ylmethyl)-5-(5-(trifluoromethyl)-1,2,4-oxadiazol-3-yl)pyrimidin-2-amine]
IC50 [1]: 6700 nM | IC50 (Human recombinant HDAC4): 39 nM | IC50 [2]: 3200 nM

FC(F)(F)c1nc(-c2cnc(NCc3ccccc3)nc2)no1 [Example 4, N-benzyl-5-(5-(trifluoromethyl)-1,2,4-oxadiazol-3-yl)pyrimidin-2-amine]
IC50 [1]: 320 nM | IC50 (Human recombinant HDAC4): 36 nM | IC50 [2]: > 10000 nM

CN(Cc1ccnc(Cl)c1)c1ncc(-c2noc(C(F)(F)F)n2)cn1 [Example 5, N-((2-chloropyridin-4-yl)methyl)-N-methyl-5-(5-(trifluoromethyl)-1,2,4-oxadiazol-3-yl)pyrimidin-2-amine]
IC50 [1]: 2100 nM | IC50 (Human recombinant HDAC4): 40 nM | IC50 [2]: 1700 nM

FC(F)(F)c1nc(-c2cnc(NCc3ccncc3)nc2)no1 [Example 6, N-(pyridin-4-ylmethyl)-5-(5-(trifluoromethyl)-1,2,4-oxadiazol-3-yl)pyrimidin-2-amine]
IC50 [1]: 990 nM | IC50 (Human recombinant HDAC4): 44 nM | IC50 [2]: 620 nM

CC(Nc1ncc(-c2noc(C(F)(F)F)n2)cn1)c1ccccc1 (stereo not drawn) [Example 7, N-(1-phenylethyl)-5-(5-(trifluoromethyl)-1,2,4-oxadiazol-3-yl)pyrimidin-2-amine]
IC50 [1]: > 400 nM | IC50 (Human recombinant HDAC4): 120 nM | IC50 [2]: > 10000 nM

Cc1ccc(CNc2ncc(-c3noc(C(F)(F)F)n3)cn2)cn1 [Example 8, N-((6-methylpyridin-3-yl)methyl)-5-(5-(trifluoromethyl)-1,2,4-oxadiazol-3-yl)pyrimidin-2-amine]
IC50 [1]: 250 nM | IC50 (Human recombinant HDAC4): 25 nM | IC50 [2]: 3000 nM

CC(Nc1ncc(-c2noc(C(F)(F)F)n2)cn1)c1ccncc1 (stereo not drawn) [Example 9, N-(1-(pyridin-4-yl)ethyl)-5-(5-(trifluoromethyl)-1,2,4-oxadiazol-3-yl)pyrimidin-2-amine]
IC50 [1]: 560 nM | IC50 (Human recombinant HDAC4): 22 nM | IC50 [2]: 4100 nM

FC(F)(F)c1nc(-c2cnc(NCc3cccnc3)nc2)no1 [Example 10, N-(pyridin-3-ylmethyl)-5-(5-(trifluoromethyl)-1,2,4-oxadiazol-3-yl)pyrimidin-2-amine]
IC50 [1]: 1100 nM | IC50 (Human recombinant HDAC4): 140 nM | IC50 [2]: 6600 nM

Cc1cccc(CNc2ncc(-c3noc(C(F)(F)F)n3)cn2)n1 [Example 11, N-((6-methylpyridin-2-yl)methyl)-5-(5-(trifluoromethyl)-1,2,4-oxadiazol-3-yl)pyrimidin-2-amine]
IC50 [1]: 550 nM | IC50 (Human recombinant HDAC4): 240 nM | IC50 [2]: 510 nM

C[C@@H](Nc1ncc(-c2noc(C(F)(F)F)n2)cn1)c1ccccc1 [Example 12, (R)—N-(1-phenylethyl)-5-(5-(trifluoromethyl)-1,2,4-oxadiazol-3-yl)pyrimidin-2-amine]
IC50 [1]: 340 nM | IC50 (Human recombinant HDAC4): 49 nM | IC50 [2]: 3500 nM

CC[C@@H](Nc1ncc(-c2noc(C(F)(F)F)n2)cn1)c1ccccc1 [Example 13, (R)—N-(1-phenylpropyl)-5-(5-(trifluoromethyl)-1,2,4-oxadiazol-3-yl)pyrimidin-2-amine]
IC50 [1]: 140 nM | IC50 (Human recombinant HDAC4): 22 nM | IC50 [2]: 1700 nM

CN(CCc1ccncc1)c1ncc(-c2noc(C(F)(F)F)n2)cn1 [Example 14, N-methyl-N-(2-(pyridin-4-yl)ethyl)-5-(5-(trifluoromethyl)-1,2,4-oxadiazol-3-yl)pyrimidin-2-amine]
IC50 [1]: > 10000 nM | IC50 (Human recombinant HDAC4): 110 nM | IC50 [2]: 7600 nM

CCC(Nc1ncc(-c2noc(C(F)(F)F)n2)cn1)c1ccncc1 (stereo not drawn) [Example 15, N-(1-(pyridin-4-yl)propyl)-5-(5-(trifluoromethyl)-1,2,4-oxadiazol-3-yl)pyrimidin-2-amine]
IC50 [1]: 210 nM | IC50 (Human recombinant HDAC4): 20 nM | IC50 [2]: 2600 nM

Cc1cc(C(C)Nc2ncc(-c3noc(C(F)(F)F)n3)cn2)ccn1 (stereo not drawn) [Example 16]
IC50 [1]: 350 nM | IC50 (Human recombinant HDAC4): 44 nM | IC50 [2]: 1600 nM

Cc1cc(CN(C)c2ncc(-c3noc(C(F)(F)F)n3)cn2)ccn1 [Example 17, N-methyl-N-((2-methylpyridin-4-yl)methyl)-5-(5-(trifluoromethyl)-1,2,4-oxadiazol-3-yl)pyrimidin-2-amine]
IC50 [1]: 3500 nM | IC50 (Human recombinant HDAC4): 34 nM | IC50 [2]: 2200 nM

C[C@H](CN(C)C)NC(=O)c1ccc(-c2noc(C(F)(F)F)n2)nc1 [Example 18, (R)—N-(1-(dimethylamino)propan-2-yl)-6-(5-(trifluoromethyl)-1,2,4-oxadiazol-3-yl)nicotinamide]
IC50 [1]: > 10000 nM | IC50 (Human recombinant HDAC4): 250 nM | IC50 [2]: > 10000 nM

CC(CN(C)C)NC(=O)c1ccc(-c2noc(C(F)(F)F)n2)nc1 (stereo not drawn) [Example 19, N-(1-(dimethylamino)propan-2-yl)-6-(5-(trifluoromethyl)-1,2,4-oxadiazol-3-yl)nicotinamide]
IC50 [1]: > 10000 nM | IC50 (Human recombinant HDAC4): 350 nM | IC50 [2]: 1700 nM

C[C@@H](CO)NC(=O)c1ccc(-c2noc(C(F)(F)F)n2)nc1 [Example 20, (S)—N-(1-hydroxypropan-2-yl)-6-(5-(trifluoromethyl)-1,2,4-oxadiazol-3-yl)nicotinamide]
IC50 [1]: > 10000 nM | IC50 (Human recombinant HDAC4): 4300 nM | IC50 [2]: > 10000 nM

C[C@H](CN(C)Cc1ccccc1)NC(=O)c1ccc(-c2noc(C(F)(F)F)n2)nc1 [Example 21, (R)—N-(1-(benzyl(methyl)amino)propan-2-yl)-6-(5-(trifluoromethyl)-1,2,4-oxadiazol-3-yl)nicotinamide]
IC50 [1]: > 10000 nM | IC50 (Human recombinant HDAC4): 18 nM | IC50 [2]: > 10000 nM

CCN(CC)C[C@H](NC(=O)c1ccc(-c2noc(C(F)(F)F)n2)nc1)C(C)C [Example 22, (R)—N-(1-(diethylamino)-3-methylbutan-2-yl)-6-(5-(trifluoromethyl)-1,2,4-oxadiazol-3-yl)nicotinamide]
IC50 [1]: > 10000 nM | IC50 (Human recombinant HDAC4): 160 nM | IC50 [2]: > 10000 nM

CCN(CC)C[C@@H](C)NC(=O)c1ccc(-c2noc(C(F)(F)F)n2)nc1 [Example 23, (R)—N-(1-(diethylamino)propan-2-yl)-6-(5-(trifluoromethyl)-1,2,4-oxadiazol-3-yl)nicotinamide]
IC50 [1]: > 10000 nM | IC50 (Human recombinant HDAC4): 28 nM | IC50 [2]: > 10000 nM

C[C@H](CN(C)C)NC(=O)c1ccc(-c2noc(C(F)(F)F)n2)cn1 [Example 24, (R)—N-(1-(dimethylamino)propan-2-yl)-5-(5-(trifluoromethyl)-1,2,4-oxadiazol-3-yl)picolinamide]
IC50 [1]: > 10000 nM | IC50 (Human recombinant HDAC4): 990 nM | IC50 [2]: > 10000 nM

C[C@H](CN(C)C)NC(=O)c1ncc(-c2noc(C(F)(F)F)n2)cc1Cl [Example 25, (R)-3-chloro-N-(1-(dimethylamino)propan-2-yl)-5-(5-(trifluoromethyl)-1,2,4-oxadiazol-3-yl)picolinamide]
IC50 [1]: > 10000 nM | IC50 (Human recombinant HDAC4): 3600 nM | IC50 [2]: > 10000 nM
